Earlier results on 1 molecule are cited in patent US20070099889A1, “Use of pseudan and pseudan inclusion bodies” (priority 2005, published 2007).

The conditions of the data set: isolated from filtrates of 4 to 6 week old culture of P. aeruginosa.

Consider `CCCCCCCCCc1cc(O)c2ccccc2n1` [4-hydroxy-2-nonylquinoline], for which the antibiotic activity entry is listed as “exhibit antibiotic activity”.
